Source: patent US20150299614A1, “IMPROVEMENTS IN OR RELATING TO ORGANIC COMPOUNDS” (Givaudan, S.A., priority 2012, published 2015)
Each block holds one molecule with its values, some of them ahead of it.

Columns and labels:
[1] = Colour stability in colourless consumer base; format: physicochemical; details: dosed in a colourless consumer base at 0.02%, storage 4 weeks at 45 ° C.
Protocol: By the term “colour stable” is meant that when dosed in a colourless consumer base at 0.02% and held under storage for 4 weeks at 45 ° C., bases containing the compounds of formula (I) remain colourless upon visual inspection. On the other hand, bases containing iso-eugenol and iso-eugenol “[…]” such as vanillin at the same concentration were discoloured, variously appearing to have yellowish, orange, […] or brown hues.

[2] = Colour stability in fine fragrance (ethanol solution, indoor daylight); format: physicochemical; details: 1 and 0.5% wt/wt in 96% EtOH, glass vials, visual inspection
Protocol: A solution of the test compound (compound of formula (I) specified in the Table below) was prepared in perfumery grade ethanol (96% EtOH, 4% water) at 1 and 0.5% wt/wt. The solutions were placed in 2.5 ml transparent glass vials closed with plastic lids. The vials were placed behind a window exposed to indoor daylight. The colour of the solutions was inspected visually over a 1 month period.

[3] = Odour perception threshold; details: in air
[4] = tested on: KeratinoSens™ cell line (Luciferase gene under the control of the ARE-element of the gene AKR1C2); assay: KeratinoSens assay for skin sensitization (luciferase gene induction); format: cell-based; details: for luciferase gene induction relative to the 1.5-fold threshold: 48 h incubation, 0.98 to 2000 μM, FIG. 1; for skin sensitization rating by the KeratinoSens assay: positive if EC1.5 below 1000 μM, viability above 70%, dose-response
Protocol: The KeratinoSens™ cell line contains a stable insertion of a Luciferase gene under the control of the ARE-element of the gene AKR1C2. The optimization of this cell line and the standard method to test chemicals has been described in detail in Emter et. al. 2010 (Emter R., Ellis G., Natsch A., 2010 “Performance of a novel keratinocyte-based reporter cell line to screen skin sensitizers in vitro. Toxicol Appl Pharmacol 245, 281-290). Cells were grown for 24 h in 96-well plates. The medium was then replaced with medium containing the test chemical and the solvent Dimethylsulfoxide (DMSO) at a final level of 1%. Each compound was tested at 12 binary dilutions in the range from 0.98 to 2000 μM. In each repetition, three parallel replicate plates were run with this same set-up and a fourth parallel plate was prepared for cytotoxicity determination using an MTT assay. Cells were incubated for 48 h with the test agents, and then luciferase activity and cytotoxicity were determined. This full procedure was repeated at least three times for each chemical. For each chemical in each repetition and at each concentration, the gene induction compared to DMSO controls and the wells with statistically significant induction over the threshold of 1.5 (i.e. 50% enhanced gene activity) were determined. Furthermore the maximal fold-induction (Imax) and the EC1.5 value (concentration in μM for induction above the threshold) were calculated. Chemicals are rated as positive (i.e. likely skin-sensitizers) in the assay if the following three criteria are fulfilled (i) The EC1.5 value is below 1000 μM in all three repetitions or in at least 2 repetitions, (ii) at the lowest concentration with a gene induction above 1.5 fold (i.e. at the EC 1.5 determining value), the cellular viability is above 70% and (iii) there is an apparent overall dose-response for luciferase induction, which is similar between the repetitions.

[5] = tested on: KeratinoSens™ cell line; assay: Cytotoxicity determination using an MTT assay in the KeratinoSens assay; format: cell-based; details: 48 h, oxime: no significant cytotoxicity up to the value, Isoeugenol: cytotoxic above the value
Protocol: The KeratinoSens™ cell line contains a stable insertion of a Luciferase gene under the control of the ARE-element of the gene AKR1C2. The optimization of this cell line and the standard method to test chemicals has been described in detail in Emter et. al. 2010 (Emter R., Ellis G., Natsch A., 2010 “Performance of a novel keratinocyte-based reporter cell line to screen skin sensitizers in vitro. Toxicol Appl Pharmacol 245, 281-290). Cells were grown for 24 h in 96-well plates. The medium was then replaced with medium containing the test chemical and the solvent Dimethylsulfoxide (DMSO) at a final level of 1%. Each compound was tested at 12 binary dilutions in the range from 0.98 to 2000 μM. In each repetition, three parallel replicate plates were run with this same set-up and a fourth parallel plate was prepared for cytotoxicity determination using an MTT assay. Cells were incubated for 48 h with the test agents, and then luciferase activity and cytotoxicity were determined. […] For each chemical in each repetition and at each concentration, the gene induction compared to DMSO controls and the wells with statistically significant induction over the threshold of 1.5 (i.e. 50% enhanced gene activity) were determined. Furthermore the maximal fold-induction (Imax) and the EC1.5 value (concentration in μM for induction above the threshold) were calculated. […]

[6] = Colour stability in bar soap; format: physicochemical; details: tallow toilet soap, 2% wt/wt of a 10% wt/wt solution in DPG, 1 month at 45° C.
Protocol: The extruded 24×8 mm soap string was cut into 8 cm pieces, which were placed in a thermostated oven for 1 month at 45° C. A control sample containing no fragrance was added to the stability test series.

colour of consumer base upon visual inspection [1]: discoloured
Colour of ethanol solution after 1 month [2]: yellow
Colour of ethanol solution after 1 month ([2]; listed as vanillin): unacceptable yellow colour
SMILES: COc1cc(C=O)ccc1O [Vanillin]

SMILES: CO/N=C/CC(C)c1cccc(C(C)C)c1 (centres unmarked) [E)-3-(3-isopropylphenyl)butanal O-methyl oxime]
perception threshold [3]: 22.4 ng/L

SMILES: CC/C=C\CC/C=C/C=N/OC [(1E,2E,6Z)-nona-2,6-dienal O-methyl oxime]
perception threshold [3]: 2.94 ng/L

colour of consumer base upon visual inspection [1]: discoloured
SMILES: CC=Cc1ccc(O)c(OC)c1 [Isoeugenol]
luciferase gene induction relative to the 1.5-fold threshold [4]: clearly induces the gene already in the lower micromolar range
skin sensitization rating by the KeratinoSens assay [4]: sensitizing
concentration above which cytotoxic (cell viability) [5]: above 500 micromolar

Colour of ethanol solution after 1 month [2]: colourless
colour of soap after one month [6]: remained as control
SMILES: CCOc1cc(C=NOC)ccc1O [Cpd I (R1 = Et, R2 = Me), 3-ethoxy-4-hydroxybenzaldehyde O-methyl oxime]
luciferase gene induction relative to the 1.5-fold threshold [4]: did not induce luciferase activity above the 1.5-fold threshold
skin sensitization rating by the KeratinoSens assay [4]: non-sensitizing
Colour of ethanol solution after 1 month ([2]; listed as compound I): would have passed the requirements for colourless fine fragrance
concentration above which cytotoxic (cell viability) [5]: > 1000 µM

SMILES: CC/C=C\CC/C=C/C=O [(2E,6Z)-nona-2,6-dienal]
perception threshold [3]: 0.06 ng/L

SMILES: CCOc1cc(C=O)ccc1O [Ethyl Vanillin]
Colour of ethanol solution after 1 month [2]: yellow
Colour of ethanol solution after 1 month ([2]; listed as ethyl vanillin): unacceptable yellow colour
colour of soap after one month [6]: chocolate brown

SMILES: CC(C)c1cccc(C(C)CC=O)c1 (centres unmarked) [3-(3-isopropylphenyl)butanal]
perception threshold [3]: 0.07 ng/L
